Measured values taken from patent US20210030703A1, “USE OF CALORIC RESTRICTION MIMETICS FOR POTENTIATING CHEMO-IMMUNOTHERAPY FOR THE TREATMENT OF CANCERS” (INSERM (INSTITUT NATIONAL DE LA SANTÉ ET DE LA RECHERCHE …, priority 2018, published 2021).

Legend:
mammary carcinomas = experiment: Hormone-induced (MPA/DMBA) orthotopic mammary tumor model; format: in vivo, BALB/c mice; conditions: combination of MTX-based chemotherapy and HC, versus MTX and HC alone; data not shown
Source text: Breast cancers were induced in young (7-weeks-old) female BALB/c mice by implantation of medroxyprogesterone acetate (MPA)-releasing pellets followed by gavage with the DNA damaging agent 7,12-Dimethylbenz[a]anthracene (DMBA) for the following 6 weeks. Note that the interval between the last DMBA injection and the manifestation of palpable breast cancer lesions is rather variable. When palpable tumors appeared, mice were randomized into the different experimental groups and treated with intraperitoneal injections of hydroxycitrate (100 mg/kg) at d-1 and d0 and/or intraperitoneal injections of 5.17 mg/kg of Mitoxantrone. Neutralizing anti-CD11b antibodies (clone M1/70, ref BE0007 from BioXCell™) or their isotype control (clone LTF-2, ref BE0090 from BioXCell™) were then injected at d-1, d0 and d7. Tumor growth was followed by calculating tumor surface (mm^2) with the formula length×width.

PD-L1 = PD-L1 expression on CD45+/- tumor infiltrating cells; format: in vivo, C57B1/6 mice
Source text: WT 9 weeks old C57B1/6 mice were subcutaneously injected with MCA205 WT fibrosarcoma cells. When tumors became palpable, mice underwent two days of fasting (d-2 to d0). HC treatment in drinking water began the day after (d-1), followed by chemotherapy with MTX (d0). 11 days post-chemotherapy, mice were sacrified and tumors were collected, dissociated, filtrated and stained with panel 3 antibodies. The results are represented as percentage among viable cells. […] The data shown represent a pool of two independent experiments sharing all the groups. Statistical analysis were realized using ordinary one-way ANOVA. ****p<0.001, ***p<0.005, **p<0.01, *p<0.05.
(§1) 3 or 11 days post-chemotherapy (d3 or d11), mice were euthanized and the tumors were withdrawn and placed in gentleMACS C tubes (ref 130-096-334 from Miltenyi Biotec™) previously filled with 1 ml of DMEM or RPMI medium, and immediately put on ice. After a mechanical (with scissors) and chemical digestion (thanks to the tumor dissociation kit and the gentleMACS Octo Dissociator, ref 130-096-730 and 130-096-427, respectively, from Miltenyi Biotec™), tumors were filtered (using MACS smartstrainers […], ref 130-110-916 from Miltenyi Biotec™), washed twice with PBS and distributed in a 96-wells round bottom plate.
(§2) Then, cells were stained with a live dead dye (ref L34959 from ThermoFisher Scientific™) and an FCblock receptor targeting antibody. […] Finally, cells were resuspended in FACS buffer and analyzed on a flow cytometer BD LSR II.

PD-L2 = PD-L2 expression in tumor cells; format: in vivo, C57B1/6 mice; conditions: data not shown
Description: as §1, §2

whole MCA205 tumors = experiment: RNA-seq analyses of whole tumors; format: in vivo, C57B1/6 mice; conditions: day 3 post-chemotherapy (MTX); data not shown
MCA205 fibrosarcoma = experiment: Subcutaneous MCA205 fibrosarcoma: tumor growth, cure and survival under chemo-immunotherapy; format: in vivo, C57B1/6 mice
[1] = background, reference (9); cited from earlier work
PD-1 = PD-1 expression in tumors; format: in vivo, C57B1/6 mice; conditions: MTX alone or together with fasting or CRMs; data not shown
Description: as §1, §2

CTLA-4 = CTLA-4 expression in tumors; format: in vivo, C57B1/6 mice; conditions: MTX alone or together with fasting or CRMs; data not shown

Row | SMILES | Reduction of tumor growth and prolongation of mouse survival (mammary carcinomas) | Effect of co-treatment on MTX-induced PD-L1 upregulation (PD-L1; FIG. 8A-D) | Effect of co-treatment on MTX-induced PD-L2 increase in CD45- cells (PD-L2) | Evidence of local immunostimulation (whole MCA205 tumors) | Cure rate (MCA205 fibrosarcoma; CRM added to OXA+PD-1 blockade) [%] | Cured mice (MCA205 fibrosarcoma; CRM added to OXA+PD-1 blockade) | Efficacy of OXA and anti-PD-1 combination when the CRM is added (MCA205 fibrosarcoma; figure legend FIG. 7) | Efficacy of anticancer chemotherapy with immunogenic cell death (ICD) inducers [1] | PD-L1 on non-leukocytes from the cancer (CD45- cells, mostly malignant cells) (PD-L1; MCA205 tumor-bearing mice treated with MTX (FIG. 8A, B)) | PD-L1 in leukocytes expressing CD11b (PD-L1; MCA205 tumor-bearing mice treated with MTX (FIG. 8C, D)) | Percentage of CD45- PD-L1+ cells (PD-L1; MTX alone or in combination with NF or HC, 11 days post-chemotherapy (FIG. 8A)) | Mean fluorescent intensity of PD-L1 on CD45- cells (PD-L1; MTX alone or in combination with NF or HC, 11 days post-chemotherapy (FIG. 8B)) | Percentage of CD45+ PD-L1+ cells (PD-L1; MTX alone or in combination with NF or HC, 11 days post-chemotherapy (FIG. 8C)) | Mean fluorescent intensity (D) of PD-L1 on CD45- cells (PD-L1; MTX alone or in combination with NF or HC, 11 days post-chemotherapy (FIG. 8D)) | PD-L2 expression in CD45- cells (PD-L2; MTX) | Expression of PD-1 (PD-1) | Expression of CTLA-4 (CTLA-4)
1 | O=C(O)CC(O)(C(=O)O)C(O)C(=O)O (centres unmarked) [HC, hydroxycitrate] | highly efficient in reducing tumor growth and prolonging mouse survival | not altered | not affected | failed to yield convincing evidence | 80 | 16 out of 20 | further enhanced | able to improve the efficacy |  |  |  |  |  |  |  |  | 
2 | O=C1c2c(O)ccc(O)c2C(=O)c2c(NCCNCCO)ccc(NCCNCCO)c21 [MTX, mitoxantrone] |  |  |  |  |  |  |  |  | upregulation | upregulation | increases | increases | increases | increases | increase | No changes | No changes
